In patent US20020137929A1, “1 - (3-heterocyclylphenyl) isothiourea, -isourea, -guanidine and -amidine herbicidal agents” (Intellectual Property Department, BASF Aktiengesellschaft, priority 1998, published 2002):

Legend:
AMBEL (Ragweed, Common) [1] = assay: Postemergence herbicidal evaluation; assay type: in vivo, Ambrosia artemisifolia; conditions: postemergence
Summary of the method: (§1)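 Two-week seedlings sprayed postemergence at 40 psi; formulation: 1:1 acetone/water, 0.5% TWEEN 20; application ≈0.0156–0.500 kg/ha. Greenhouse grow-out, then 0–9 visual scoring at 4–5 weeks.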

[2] = tested on: IPOHE (Morningglory, Ivyleaf); assay: Postemergence herbicidal evaluation; assay type: in vivo, Ipomoea hederacea; conditions: postemergence
Summary of the method: as §1

[3] = tested on: GLXMAW (Soybean, Williams); assay: Postemergence herbicidal evaluation; assay type: in vivo, Glycine max, (L.) Merr. cv Williams; conditions: postemergence
Summary of the method: as §1

ZEAMX (Corn, Field) = assay: Postemergence herbicidal evaluation; assay type: in vivo, Zea mays; conditions: postemergence
Summary of the method: as §1

ABUTH (Velvetleaf) = assay: Preemergence herbicidal evaluation; assay type: in vivo, Abutilon theophrasti; conditions: rated 4-5 weeks after treatment
Summary of the method: (§2)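 In this greenhouse assay, monocot and dicot seeds are planted in soil and treated prior to emergence with an aqueous acetone spray (about 0.0156-0.500 kg/ha). Plants are assessed visually against control on a 0-9 scale after 4-5 weeks.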

AMBEL (Ragweed, Common) [4] = assay: Preemergence herbicidal evaluation; assay type: in vivo, Ambrosia artemisifolia; conditions: rated 4-5 weeks after treatment
Summary of the method: as §2

CASOB (Sicklepod) = assay: Preemergence herbicidal evaluation; assay type: in vivo, Cassia obtusifolia; conditions: rated 4-5 weeks after treatment
Summary of the method: as §2

GALAP (Galium) = assay: Preemergence herbicidal evaluation; assay type: in vivo, Galium aparine; conditions: rated 4-5 weeks after treatment
Summary of the method: as §2

ECHCG (Barnyardgrass) = assay: Preemergence herbicidal evaluation; assay type: in vivo, Echinochloa crus-galli; conditions: rated 4-5 weeks after treatment
Summary of the method: as §2

SETVI (Foxtail, Green) = assay: Preemergence herbicidal evaluation; assay type: in vivo, Setaria viridis; conditions: rated 4-5 weeks after treatment
Summary of the method: as §2

[5] = tested on: GLXMAW (Soybean, Williams); assay: Preemergence herbicidal evaluation; assay type: in vivo, Glycine max, (L.) Merr. cv Williams; conditions: rated 4-5 weeks after treatment
Summary of the method: as §2

CYPSE (Flatsedge) = assay: Preemergence weed control under flooded paddy conditions; assay type: in vivo, Cyperus serotinus; conditions: rated 3-4 weeks after treatment
Summary of the method: (§3)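 First, seeds or propagules go into the top 0.5 cm of silt loam; next, water is held 1.5 to 3 cm over the soil; then compound (50/50 acetone/water) is pipetted into it at about 0.0313 to 0.500 kg/ha; finally plants are rated visually 0-9 after three to four weeks.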

[6] = tested on: SAGPY (Arrowhead (Pygmaea)); assay: as above; assay type: in vivo, Sagittaria pygmaea; conditions: rated 3-4 weeks after treatment
Summary of the method: as §3

[7] = tested on: ECHORC (Watergrass (Calif.)); assay: Postemergence weed control under flooded paddy conditions; assay type: in vivo, Echinochloa oryzoides; conditions: postemergence weeds, rated 3 to 4 weeks after treatment
Summary of the method: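 With weeds 3 to 5 cm tall and rice at the 1.5 to 2.5 leaf stage, containers were flooded and water held 1.5 to 3 cm above soil. Compounds in 50/50 v/v aqueous/acetone went into the flood water at about 0.0313 to 0.500 kg/ha a.i. Effects were visually rated 0–9 against controls after three to four weeks in the greenhouse.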

Structure (SMILES): CCOC(=O)[C@H](C)N1C(=O)CSC1=Nc1cc(-n2c(=O)cc(C(F)(F)F)n(C)c2=O)c(F)cc1Cl [Compound 76, Ethyl 2-{{2-chloro-5-[3,6-dihydro-3-methyl-2,6-dioxo-4-(trifluoromethyl)-1(2H)-pyrimidinyl]-4-fluorophenyl}imino}-α-methyl-4-oxo-3-thiazolidineacetate, L-]
- AMBEL herbicidal rating (AMBEL (Ragweed, Common) [1]; rate 0.0158 kg/ha): 9.0
- AMBEL herbicidal rating (AMBEL (Ragweed, Common) [1]; rate 0.0315 kg/ha): 9.0
- AMBEL herbicidal rating (AMBEL (Ragweed, Common) [1]; rate 0.0630 kg/ha): 9.0
- IPOHE herbicidal rating ([2]; rate 0.0158 kg/ha): 9.0
- IPOHE herbicidal rating ([2]; rate 0.0315 kg/ha): 9.0
- IPOHE herbicidal rating ([2]; rate 0.0630 kg/ha): 9.0
- GLXMAW herbicidal rating ([3]; rate 0.0158 kg/ha): 4.0
- GLXMAW herbicidal rating ([3]; rate 0.0315 kg/ha): 5.5
- GLXMAW herbicidal rating ([3]; rate 0.0630 kg/ha): 6.0
- ZEAMX herbicidal rating (ZEAMX (Corn, Field); rate 0.0158 kg/ha): 4.5
- ZEAMX herbicidal rating (ZEAMX (Corn, Field); rate 0.0315 kg/ha): 6.0
- ZEAMX herbicidal rating (ZEAMX (Corn, Field); rate 0.0630 kg/ha): 7.0
- Preemergence herbicidal rating ABUTH (ABUTH (Velvetleaf); rate 0.0156 kg/ha): 1.0
- Preemergence herbicidal rating ABUTH (ABUTH (Velvetleaf); rate 0.0313 kg/ha): 1.0
- Preemergence herbicidal rating ABUTH (ABUTH (Velvetleaf); rate 0.0625 kg/ha): 9.0
- Preemergence herbicidal rating ABUTH (ABUTH (Velvetleaf); rate 0.1250 kg/ha): 9.0
- Preemergence herbicidal rating ABUTH (ABUTH (Velvetleaf); rate 0.2500 kg/ha): 9.0
- Preemergence herbicidal rating AMBEL (AMBEL (Ragweed, Common) [4]; rate 0.0156 kg/ha): 0.0
- Preemergence herbicidal rating AMBEL (AMBEL (Ragweed, Common) [4]; rate 0.0313 kg/ha): 0.0
- Preemergence herbicidal rating AMBEL (AMBEL (Ragweed, Common) [4]; rate 0.0625 kg/ha): 7.0
- Preemergence herbicidal rating AMBEL (AMBEL (Ragweed, Common) [4]; rate 0.1250 kg/ha): 9.0
- Preemergence herbicidal rating AMBEL (AMBEL (Ragweed, Common) [4]; rate 0.2500 kg/ha): 9.0
- Preemergence herbicidal rating CASOB (CASOB (Sicklepod); rate 0.0156 kg/ha): 0.0
- Preemergence herbicidal rating CASOB (CASOB (Sicklepod); rate 0.0313 kg/ha): 0.0
- Preemergence herbicidal rating CASOB (CASOB (Sicklepod); rate 0.0625 kg/ha): 0.0
- Preemergence herbicidal rating CASOB (CASOB (Sicklepod); rate 0.1250 kg/ha): 0.0
- Preemergence herbicidal rating CASOB (CASOB (Sicklepod); rate 0.2500 kg/ha): 1.0
- Preemergence herbicidal rating GALAP (GALAP (Galium); rate 0.0156 kg/ha): 0.0
- Preemergence herbicidal rating GALAP (GALAP (Galium); rate 0.0313 kg/ha): 0.0
- Preemergence herbicidal rating GALAP (GALAP (Galium); rate 0.0625 kg/ha): 0.0
- Preemergence herbicidal rating GALAP (GALAP (Galium); rate 0.1250 kg/ha): 1.0
- Preemergence herbicidal rating GALAP (GALAP (Galium); rate 0.2500 kg/ha): 9.0
- Preemergence herbicidal rating ECHCG (ECHCG (Barnyardgrass); rate 0.0156 kg/ha): 0.0
- Preemergence herbicidal rating ECHCG (ECHCG (Barnyardgrass); rate 0.0313 kg/ha): 0.0
- Preemergence herbicidal rating ECHCG (ECHCG (Barnyardgrass); rate 0.0625 kg/ha): 1.0
- Preemergence herbicidal rating ECHCG (ECHCG (Barnyardgrass); rate 0.1250 kg/ha): 7.0
- Preemergence herbicidal rating ECHCG (ECHCG (Barnyardgrass); rate 0.2500 kg/ha): 9.0
- Preemergence herbicidal rating SETVI (SETVI (Foxtail, Green); rate 0.0156 kg/ha): 0.0
- Preemergence herbicidal rating SETVI (SETVI (Foxtail, Green); rate 0.0313 kg/ha): 6.0
- Preemergence herbicidal rating SETVI (SETVI (Foxtail, Green); rate 0.0625 kg/ha): 7.0
- Preemergence herbicidal rating SETVI (SETVI (Foxtail, Green); rate 0.1250 kg/ha): 9.0
- Preemergence herbicidal rating SETVI (SETVI (Foxtail, Green); rate 0.2500 kg/ha): 9.0
- Preemergence herbicidal rating GLXMAW ([5]; rate 0.0156 kg/ha): 0.0
- Preemergence herbicidal rating GLXMAW ([5]; rate 0.0313 kg/ha): 0.0
- Preemergence herbicidal rating GLXMAW ([5]; rate 0.0625 kg/ha): 3.0
- Preemergence herbicidal rating GLXMAW ([5]; rate 0.1250 kg/ha): 6.0
- Preemergence herbicidal rating GLXMAW ([5]; rate 0.2500 kg/ha): 9.0
- CYPSE herbicidal effect rating (CYPSE (Flatsedge); 0.0313 kg/ha): 2.0
- CYPSE herbicidal effect rating (CYPSE (Flatsedge); 0.0625 kg/ha): 2.0
- CYPSE herbicidal effect rating (CYPSE (Flatsedge); 0.1250 kg/ha): 2.0
- CYPSE herbicidal effect rating (CYPSE (Flatsedge); 0.2500 kg/ha): 3.0
- SAGPY herbicidal effect rating ([6]; 0.0313 kg/ha): 0.0
- SAGPY herbicidal effect rating ([6]; 0.0625 kg/ha): 0.0
- SAGPY herbicidal effect rating ([6]; 0.1250 kg/ha): 4.0
- SAGPY herbicidal effect rating ([6]; 0.2500 kg/ha): 4.0
- Herbicidal rating ECHORC ([7]; Rate 0.0313 kg/ha): 4.0
- Herbicidal rating ECHORC ([7]; Rate 0.0625 kg/ha): 7.0
- Herbicidal rating ECHORC ([7]; Rate 0.1250 kg/ha): 9.0
- Herbicidal rating ECHORC ([7]; Rate 0.2500 kg/ha): 9.0
